Test results as given in publication PMC9304066, “H2S biogenesis by cystathionine beta-synthase: mechanism of inhibition by aminooxyacetic acid and unexpected role of serine” (Cellular and Molecular Life Sciences: CMLS, 2022).
“And” between values parts separate entries of the source, which are not always exact repeats. Identical values can stand only once.

Tests used:
tScCBS [1] = target: T1, tScCBS (Saccharomyces cerevisiae, UniProt P32582); assay: UV-Vis absorption titration of tScCBS (dissociation constants); assay type: binding; conditions: tScCBS 1 mg/mL, pH 8.5; decrease in absorbance at 412 nm (AOAA), increase at 460 nm (Ser) or 440 nm (Cys); 3 min incubation; read-out: Dissociation constant Kd (UV-Vis absorption)
T1 construct: 6xHis (C); made in house
T1 sequence (P32582 1-345): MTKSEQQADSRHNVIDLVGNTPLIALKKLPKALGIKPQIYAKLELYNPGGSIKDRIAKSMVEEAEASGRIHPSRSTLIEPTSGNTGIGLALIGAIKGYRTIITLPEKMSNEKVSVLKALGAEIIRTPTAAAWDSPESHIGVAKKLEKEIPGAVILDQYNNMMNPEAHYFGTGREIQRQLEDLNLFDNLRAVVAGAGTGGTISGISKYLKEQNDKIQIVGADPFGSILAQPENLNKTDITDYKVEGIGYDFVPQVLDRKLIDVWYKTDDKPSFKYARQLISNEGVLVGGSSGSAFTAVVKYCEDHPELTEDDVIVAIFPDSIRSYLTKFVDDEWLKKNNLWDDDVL
Protocol: CBS enzymes. Recombinant truncated Saccharomyces cerevisiae CBS lacking the C-terminal regulatory domain (residues 346–507) and carrying the C-terminal 6xHis tag (tScCBS) was prepared as described previously. Engineered recombinant Homo sapiens CBS lacking a loop protruding from the central β-strand of the CBS2 domain corresponding to the residues 516–525 (HsCBS; described in detail in [21]) was purchased from GenScript.
(§1) UV − Vis and fluorescence spectroscopy. Absorption spectra were collected on a Tecan Infinite M200 Pro spectrophotometer in a buffer containing 50 mM Tris–HCl pH 8.5, 20 mM NaCl and 0.5 mM tris(2-carboxyethyl)phosphine (TCEP). All the spectra were carried out with a protein concentration of 1 mg/mL with a 1 cm path-length quartz cuvette in a total volume of 150 µL. tScCBS was titrated directly in a cuvette by successive additions of different concentrations of AOAA, Ser and Cys, respectively, and spectra were recorded between 240 and 600 nm after an incubation time of 3 min at RT. Fluorescence emission spectra were collected under the same conditions upon PLP excitation at 410 nm. Blank spectra were subtracted from sample spectra.

tScCBS [2] = target: T1, tScCBS; assay: Kinetics of AOAA binding to tScCBS and displacement by substrate, followed by absorption spectra
Protocol: as §1
Fig. 2 Spectroscopic rescue of AOAA-inhibited tScCBS by Ser. A Changes in the absorption spectra of tScCBS upon addition of 20 µM AOAA (cyan lines) followed for 1 h. Subsequently, 1 mM Ser (gray lines) was added and spectral changes were followed for additional 1 h. B Representative kinetic fitting of AOAA binding to tScCBS followed at 412 nm. C Representative kinetic fitting of AOAA displacement from tScCBS by Ser by following changes at 370 nm and 460 nm. The kinetic parameters of the observed processes are shown as insets in panels B and C. Far-UV (D) and near-UV (E) CD spectra of tScCBS (black), tScCBS complexed with 20 µM AOAA (cyan) or 1 mM Ser (magenta) and tScCBS complexed with 20 µM AOAA followed by 1 h incubation with 1 mM Ser (green).

tScCBS [3] = target: T1, tScCBS; assay: CBS H2S production assay (AzMC fluorometric), tScCBS; assay type: biochemical
Protocol: CBS H2S production assay. H2S-producing activity of CBS, utilizing Cys and Hcy, was determined using a fluorometric assay employing the H2S-selective fluorescent probe 7-azido-4-methylcoumarin (AzMC) as described previously. The reaction mixture in a total volume of 200 µL contained 50 mM Tris–HCl pH 8.6, 5 μM PLP, 2 mM Hcy, 10 μM AzMC and 500 ng tScCBS or HsCBS. The plate was incubated for 10 min at 37°C and the enzymatic activity was triggered by adding 0–50 mM Cys. The fluorescence of the mixtures at 450 nm (excited at 365 nm) was followed for 2 h at 37°C. All measurements were performed in triplicates using Tecan Infinite 200 PRO microplate reader. Kinetic data were analyzed using GraphPad Prism software.

HEK293 cells = assay: Cell viability (MTT); assay type: cell-based, human; conditions: Ser 0.15–10 mM
Protocol: Cell culture. The human embryonic kidney cell line HEK293 (ATCC CRL-1573) was cultured in Dulbecco’s Modified Eagle Medium (DMEM) containing 4.5 g/L glucose. The culture medium was supplemented with 10% (v/v) heat-inactivated fetal bovine serum, 2 mM Glutamax, non-essential amino acids, 100 U/ml penicillin and 100 μg/ml streptomycin. Cells were grown in a humidified incubator at 37 °C and 5% CO2 atmosphere. Cell viability and proliferation were assessed using MTT and BrdU assay, respectively, essentially as described previously.

tScCBS [4] = target: T1, tScCBS; assay: CBL-LDH coupled-coupled CBS assay, tScCBS; assay type: biochemical
Protocol: CBS coupled-coupled assay. CBS canonical activity utilizing Ser and Hcy was determined using cystathionine beta-lyase (CBL) and lactate-dehydrogenase (LDH) coupled-coupled assay as described previously with a few modifications. Native L-LDH from rabbit muscle was purchased from Sigma (catalog no. L2500) and recombinant CBL was purchased from Creative Enzymes (catalog no. NATE-1146). In a final volume of 150 µL, the reaction mixture contained 50 mM Tris–HCl pH 8.9, 20 µM PLP, 500 µM NADH, 1.3 µM LDH, 0.1 µM CBL, 0–20 mM Ser (or 0–50 mM Cys) and 500 ng of tScCBS or HsCBS. Assays with HsCBS were carried out in the absence or presence of 500 µM CBS allosteric activator S-adenosylmethionine (SAM). The reaction was triggered by the addition of 2 mM Hcy and the oxidation of NADH to NAD^+ was followed by monitoring the decrease in absorbance at 340 nm over time (ε340 = 6220 M^−1.cm^−1). […] All measurements were performed in triplicates using Tecan Infinite 200 PRO microplate reader. Kinetic data were analyzed using GraphPad Prism software.

human skin fibroblasts = system: human skin fibroblasts; design: method as in PMID 31481613; conditions: cited from earlier work
colon cancer cells = system: colon cancer cells; design: method as in PMID 23836652, PMID 27521834, PMID 27257787; conditions: transformed cells like colon cancer cells; cited from earlier work
human recombinant CSE = system: human recombinant CSE; design: method as in PMID 23488457; conditions: in vitro; cited from earlier work

Row | Structure (SMILES) | Kd (tScCBS [1]) | Rate constant k of AOAA displacement from tScCBS by Ser (tScCBS [2]; 1 mM Ser added after 1 h with 20 µM AOAA, changes at 370 nm and 460 nm) [min⁻¹] | Slower formation of PLP-aminoacrylate intermediate compared with PLP-AOAA oxime formation (tScCBS [2]; 1 mM Ser after 20 µM AOAA) | Recovery of activity of AOAA-inhibited enzyme (tScCBS [3]; tScCBS, 1 mM Ser after 200 µM AOAA incubation, then desalting) | Cell viability (HEK293 cells) | Rate constant k of PLP-AOAA oxime intermediate formation (tScCBS [2]; 20 µM AOAA added to tScCBS, followed at 412 nm) | Inhibition of CBS activity (tScCBS [3]; 200 µM AOAA, then excess removed by desalting column, range printed for tScCBS and HsCBS together) | IC50 (tScCBS [3]; tScCBS, AzMC assay, 5 mM Cys + 2 mM Hcy) [µM] | Reduction of activity catalyzing condensation of Cys and Hcy yielding H2S (tScCBS [4]; AOAA-inhibited tScCBS (200 µM AOAA)) [%] | Effect on condensation of Ser and Hcy (canonical reaction) (tScCBS [4]; tScCBS inhibited by 200 µM AOAA, 5 mM Ser + 2 mM Hcy) | Concentration shutting down CBS-derived H2S biogenesis (human skin fibroblasts) [µM] | Concentrations required to achieve similar level of inhibition of CBS-derived H2S biogenesis (colon cancer cells) [mM] | Potency inhibiting human recombinant CSE relative to CBS (human recombinant CSE)
1 | N[C@@H](CO)C(=O)O [Ser, serine] | ~58 µM and 58.6 µM | 0.07 ± 0.01 | approximately 3 × | substantial recovery | did not affect | – | – | – | – | – | – | – | –
2 | NOCC(=O)O [AOAA, aminooxyacetic acid] | ~6 µM | – | – | – | – | 0.22 min⁻¹ and 0.22 ± 0.05 min⁻¹ | 75–92% | 9.1 | 85 | not impaired | 3 | 0.1 to 2 | ~ 8 times
